Like-named read-outs stand apart in the source and are kept apart here.
Assays:
[1] = target: T1, HCV NS5B RdRp genotype 1b (Hepatitis C virus genotype 1b, UniProt Q9WMX2); experiment: HCV NS5B RdRp enzyme assay (standard / modified); type: biochemical
T1 construct: The protein was expressed with an 18 amino acid C-terminal truncation to enhance the solubility; made in house; host or cells: E. coli BL21(DE3), pET21a vector
Description: HCV NS5B RdRp Cloning, Expression, and Purification.
The cDNA encoding the NS5B protein of HCV, genotype 1b, was cloned into the pET21a expression vector. The protein was expressed with an 18 amino acid C-terminal truncation to enhance the solubility. The E. coli competent cell line BL21(DE3) was used for expression of the protein. Cultures were grown at 37° C. for ˜4 hours until the cultures reached an optical density of 2.0 at 600 nm. The cultures were cooled to 20° C. and induced with 1 mM IPTG. Fresh ampicillin was added to a final concentration of 50 μg/ml and the cells were grown overnight at 20° C.
The lysis buffer consisted of 20 mM Tris-HCl, pH 7.4, 500 mM NaCl, 0.5% triton X-100, 1 mM DTT, 1 mM EDTA, 20% glycerol, 0.5 mg/ml lysozyme, 10 mM MgCl2, 15 ug/ml deoxyribonuclease I, and Complete TM protease inhibitor tablets (Roche). After addition of the lysis buffer, frozen cell pellets were resuspended using a tissue homogenizer. To reduce the viscosity of the sample, aliquots of the lysate were sonicated on ice using a microtip attached to a Branson sonicator. The sonicated lysate was centrifuged at 100,000×g for 1 hr at 4° C. and filtered through a 0.2 μm filter unit (Corning).
The protein was purified using two sequential chromatography steps: Heparin sepharose CL-6B and polyU sepharose 4B (Pharmacia). The chromatography buffers were identical to the lysis buffer but contained no lysozyme, deoxyribonuclease I, MgCl2 or protease inhibitor and the NaCl concentration of the buffer was adjusted according to the requirements for charging the protein onto the column. Each column was eluted with a NaCl gradient which varied in length from 5-50 column volumes depending on the column type. […] The enzyme was aliquoted and stored at −80° C.
Standard HCV NS5B RdRp Enzyme Assay.
HCV RdRp genotype 1b assays were run in a final volume of 60 μl in 96 well plates (Corning 3600). The assay buffer is composed of 20 mM Hepes, pH 7.5, 2.5 mM KCl, 2.5 mM MgCl2, 1 mM DTT, 1.6 U RNAse inhibitor (Promega N2515), 0.01 mg/ml BSA (Sigma B6917), and 2% glycerol. All compounds were serially diluted (3-fold) in DMSO and diluted further in water such that the final concentration of DMSO in the assay was 2%. HCV RdRp genotype 1b enzyme was used at a final concentration of 28 nM. A polyA template was used at 6 nM, and a biotinylated oligo-dT12 primer was used at 180 nM final concentration. Template was obtained commercially (Amersham 27-4110). Biotinylated primer was prepared by Sigma Genosys. 3H-UTP was used at 0.6 μCi (0.29 μM total UTP). Reactions were initiated by the addition of enzyme, incubated at 30° C. for 60 min, and stopped by adding 25 μl of 50 mM EDTA containing SPA beads (4 μg/μl, Amersham RPNQ 0007). Plates were read on a Packard Top Count NXT after >1 hr incubation at room temperature.
Modified HCV NS5B RdRp Enzyme Assay.
A modified enzyme assay was performed essentially as described for the standard enzyme assay except for the following: The biotinylated oligo dT12 primer was precaptured on streptavidin-coated SPA beads by mixing primer and beads in assay buffer and incubating at room temperature for one hour. Unbound primer was removed after centrifugation. The primer-bound beads were resuspended in 20 mM Hepes buffer, pH 7.5 and used in the assay at final concentrations of 20 nM primer and 0.67 μg/μl beads. Order of addition in the assay: enzyme (1.75 nM) was added to diluted compound followed by the addition of a mixture of template (0.36 nM), 3H-UTP (0.6 μCi, 0.29 μM), and primer-bound beads, to initiate the reaction; concentrations given are final. Reactions were allowed to proceed for 4 hours at 30° C.
IC50 values for compounds were determined using seven different [I].

[2] = tested on: HCV replicon cells; experiment: HCV replicon FRET / luciferase assay; type: cell-based, Hepatitis C virus
Description: The HCV FRET screening assay was performed in 96-well cell culture plates. The FRET peptide (Anaspec, Inc.) (Taliani et al., Anal. Biochem. 1996, 240, 60-67) contains a fluorescence donor, EDANS, near one end of the peptide and an acceptor, DABCYL, near the other end. The fluorescence of the peptide is quenched by […] resonance energy transfer (RET) between the donor and the acceptor, but as the NS3 protease cleaves the peptide the products are released from RET quenching and the fluorescence of the donor becomes apparent. The assay reagent was made as follows: 5× cell Luciferase cell culture lysis reagent from Promega (#E153A) diluted to 1× with dH2O, NaCl added to 150 mM final, the FRET peptide diluted to 20 μM final from a 2 mM stock.
To prepare plates, HCV replicon cells, with or without a Renilla luciferase reporter gene, were trypsinized and plated in a 96-well plate with titrated test compounds added in columns 3 through 12; columns 1 and 2 contained a control compound (HCV control inhibitor), and the bottom row contained cells with DMSO only. The plates were then placed in a CO2 incubator at 37° C.
Subsequent to addition of the test compounds described above (FRET Assay Preparation), at various times the plate was removed and Alamar blue solution (Trek Diagnostics, #00-100) was added to measure cellular toxicity. After reading in a Cytoflour 4000 instrument (PE Biosystems), plates were rinsed with PBS and then used for FRET assay by the addition of 30 ul of the FRET peptide assay reagent described above (FRET Assay Preparation) per well. The plate was then placed into the Cytoflour 4000 instrument which had been set to 340 excite/490 emission, automatic mode for up to 20 cycles and the plate read in a kinetic mode. Typically, the signal to noise using an endpoint analysis after the reads was at least three-fold. Alternatively, after Alamar blue reading, plates were rinsed with PBS, then used for luciferase assay using the Promega Dual-Glo Luciferase Assay System or the Promega EnduRen Live Cell Substrate assay.
Compound analysis was performed by quantification of the relative HCV replicon inhibition and the relative cytotoxicity values. To calculate cytoxicity values, the average Alamar Blue fluorescence signals from the control wells were set as 100% non-toxic. The individual signals in each of the compound test wells were then divided by the average control signal and multiplied by 100% to determine […]. To calculate the HCV replicon inhibition values, an average background value was obtained from the two wells containing the highest amount of HCV control inhibitor at the end of the assay period. These numbers were similar to those obtained from naïve Huh-7 cells. The background numbers were then subtracted from the average signal obtained from the control wells and this number was used as 100% activity. The individual signals in each of the compound test wells were then divided by the averaged control values after background subtraction and multiplied by 100% to determine percent activity. […] The two numbers generated for the compound plate, percent cytoxicity and percent activity, were used to determine compounds of interest for further analysis.

[3] = HCV replicon cells, FRET or luciferase activity

T1 sequence (Q9WMX2 2420-2992): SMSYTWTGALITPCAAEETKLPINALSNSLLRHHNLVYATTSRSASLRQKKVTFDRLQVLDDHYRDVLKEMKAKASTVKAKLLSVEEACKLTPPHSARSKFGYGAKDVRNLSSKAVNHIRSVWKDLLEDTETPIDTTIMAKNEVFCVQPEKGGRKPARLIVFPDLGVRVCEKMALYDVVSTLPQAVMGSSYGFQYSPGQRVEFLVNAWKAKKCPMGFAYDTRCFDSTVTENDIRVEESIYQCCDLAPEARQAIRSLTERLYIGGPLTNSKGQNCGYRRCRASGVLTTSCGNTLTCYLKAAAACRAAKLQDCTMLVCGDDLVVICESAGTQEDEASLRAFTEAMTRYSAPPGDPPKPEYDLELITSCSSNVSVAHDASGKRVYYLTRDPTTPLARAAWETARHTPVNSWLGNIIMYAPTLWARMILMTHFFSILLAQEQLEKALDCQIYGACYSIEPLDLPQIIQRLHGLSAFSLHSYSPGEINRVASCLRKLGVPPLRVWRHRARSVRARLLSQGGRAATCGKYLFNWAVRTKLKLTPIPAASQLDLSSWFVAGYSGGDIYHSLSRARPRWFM

Row | SMILES | IC50 [1] [nM] | EC50 ([2]; Hepatitis C virus) [nM] | EC50 ([2]; Hepatitis C virus, HCV replicon cells, FRET or luciferase activity, read-out: EC50) [nM] | EC50 [2, 3] [nM]
1 | COc1ccc2c(c1)C1CC1(C(=O)N1CC3CCC(C1)N3C)Cn1c-2c(C2CCCCC2)c2ccc(C(=O)NS(=O)(=O)N(C)C)cc21 (centres unmarked) | 1 to 500 | 1 to 500 | – | –
2 | COc1ccc2c(c1)C1CC1(C(=O)N1CC3CCC(C1)N3C(C)C)Cn1c-2c(C2CCCCC2)c2ccc(C(=O)NS(=O)(=O)N(C)C)cc21 (centres unmarked) | < 20 | 1 to 500 | – | –
3 | COc1ccc2c(c1)C1CC1(C(=O)N1[C@@H]3CC[C@H]1CN(S(C)(=O)=O)C3)Cn1c-2c(C2CCCCC2)c2ccc(C(=O)NS(=O)(=O)N(C)C)cc21 (some centres unmarked) | 1 to 500 | 1 to 500 | – | –
4 | CN1CC2CCC(C1)N2C(=O)C1=Cc2c(OC(F)(F)F)cccc2-c2c(C3CCCCC3)c3ccc(C(=O)NS(=O)(=O)N(C)C)cc3n2C1 | > 500 | > 500 | – | –
5 | COC(=O)c1ccc2c(C3CCCCC3)c3n(c2c1)CC1(C(=O)N2C4CCC2CN(C)C4)CC1c1c(OC)cccc1-3 (centres unmarked) | > 500 | – | – | –
6 | COc1cccc2c1C1CC1(C(=O)N1C3CCC1CN(C)C3)Cn1c-2c(C2CCCCC2)c2ccc(C(=O)O)cc21 (centres unmarked) | 1 to 500 | 1 to 500 | – | –
7 | COC(=O)c1ccc2c(C3CCCCC3)c3n(c2c1)CC1(C(=O)N2C4CCC2CN(C)C4)CC1c1c(OC(F)(F)F)cccc1-3 (centres unmarked) | > 500 | – | – | –
8 | COc1cccc2c1C1CC1(C(=O)N1C3CCC1CN(C)C3)Cn1c-2c(C2CCCCC2)c2ccc(C(=O)NS(=O)(=O)N(C)C)cc21 (centres unmarked) | 1 to 500 | > 500 | – | –
9 | CN1CC2CCC(C1)N2C(=O)C12CC1c1c(OC(F)(F)F)cccc1-c1c(C3CCCCC3)c3ccc(C(=O)O)cc3n1C2 (centres unmarked) | 1 to 500 | 1 to 500 | – | –
10 | CN1CC2CCC(C1)N2C(=O)C12CC1c1c(OC(F)(F)F)cccc1-c1c(C3CCCCC3)c3ccc(C(=O)NS(=O)(=O)N(C)C)cc3n1C2 (centres unmarked) | 1 to 500 | 1 to 500 | – | –
11 | COc1ccc2c(c1)C1CC1(C(=O)N1[C@@H]3CC[C@H]1CN(C(=O)N(C)C)C3)Cn1c-2c(C2CCCCC2)c2ccc(C(=O)NS(=O)(=O)N(C)C)cc21 (some centres unmarked) | 1 to 500 | 1 to 500 | – | –
12 | COc1ccc2c(c1)C1CC1(C(=O)N1[C@@H]3CC[C@H]1CN(C(=O)OCc1ccccc1)C3)Cn1c-2c(C2CCCCC2)c2ccc(C(=O)NS(=O)(=O)N(C)C)cc21 (some centres unmarked) | 1 to 500 | 1 to 500 | – | –
13 | COc1ccc2c(c1)C1CC1(C(=O)N1[C@@H]3CC[C@H]1CN(Cc1ccccc1)C3)Cn1c-2c(C2CCCCC2)c2ccc(C(=O)NS(=O)(=O)N(C)C)cc21 (some centres unmarked) | 1 to 500 | 1 to 500 | – | –
14 | COc1ccc2c(c1)C1CC1(C(=O)N1[C@@H]3CC[C@H]1CN(C(C)=O)C3)Cn1c-2c(C2CCCCC2)c2ccc(C(=O)NS(=O)(=O)N(C)C)cc21 (some centres unmarked) | 1 to 500 | 1 to 500 | – | –
15 | COc1ccc2c(c1)[C@@H]1C[C@]1(C(=O)N1[C@@H]3CC[C@H]1CN(S(C)(=O)=O)C3)Cn1c-2c(C2CCCCC2)c2ccc(C(=O)NS(=O)(=O)N(C)C)cc21 | 1 to 500 | 1 to 500 | – | –
16 | COc1ccc2c(c1)[C@@H]1C[C@]1(C(=O)N1[C@@H]3CC[C@H]1CN(C(=O)N(C)C)C3)Cn1c-2c(C2CCCCC2)c2ccc(C(=O)NS(=O)(=O)N(C)C)cc21 | 1 to 500 | 1 to 500 | – | –
17 | COc1ccc2c(c1)C1CC1(C(=O)N1C3CCC1CN(C)C3)Cn1c-2c(C2CCCCC2)c2ccc(C(=O)NS(=O)(=O)C(C)C)cc21 (centres unmarked) | – | 1 to 500 | – | –
18 | COc1ccc2c(c1)[C@H]1C[C@@]1(C(=O)N1C3CCC1CN(C)C3)Cn1c-2c(C2CCCCC2)c2ccc(C(=O)NS(=O)(=O)C(C)C)cc21 | – | 1 to 500 | – | –
19 | COc1ccc2c(c1)[C@@H]1C[C@]1(C(=O)N1C3CCC1CN(C)C3)Cn1c-2c(C2CCCCC2)c2ccc(C(=O)NS(=O)(=O)C(C)C)cc21 | – | 1 to 500 | – | –
20 | COc1ccc2c(c1)C1CC1(C(=O)N1C3CCC1CN(C)C3)Cn1c-2c(C2CCCCC2)c2ccc(C(=O)NS(=O)(=O)C3CCCC3)cc21 (centres unmarked) | – | 1 to 500 | – | –
21 | COc1ccc2c(c1)C1CC1(C(=O)N1C3CCC1CN(C)C3)Cn1c-2c(C2CCCCC2)c2ccc(C(=O)NS(=O)(=O)CC(C)C)cc21 (centres unmarked) | – | – | 1 to 500 | –
22 | CCCS(=O)(=O)NC(=O)c1ccc2c(C3CCCCC3)c3n(c2c1)CC1(C(=O)N2C4CCC2CN(C)C4)CC1c1cc(OC)ccc1-3 (centres unmarked) | – | 1 to 500 | – | –
23 | CCC(C)S(=O)(=O)NC(=O)c1ccc2c(C3CCCCC3)c3n(c2c1)CC1(C(=O)N2C4CCC2CN(C)C4)CC1c1cc(OC)ccc1-3 (centres unmarked) | – | 1 to 500 | – | –
24 | COc1ccc2c(c1)C1CC1(C(=O)N1C3CCC1CN(C)C3)Cn1c-2c(C2CCCCC2)c2ccc(C(=O)NS(=O)(=O)C(C)(C)C)cc21 (centres unmarked) | – | 1 to 500 | – | –
25 | CN1CC2CCC(C1)N2C(=O)C12CC1c1ccccc1-c1c(C3CCCCC3)c3ccc(C(=O)NS(=O)(=O)N(C)C)cc3n1C2 (centres unmarked) | – | 1 to 500 | – | –
26 | COc1ccc2c(c1)C1CC1(C(=O)N1C3CCC1CN(C)C3)Cn1c-2c(C2CCCCC2)c2ccc(C(=O)NS(=O)(=O)CCC(F)(F)F)cc21 (centres unmarked) | – | 1 to 500 | – | –
27 | COc1ccc2c(c1)C1CC1(C(=O)N1C3CCC1CN(C)C3)Cn1c-2c(C2CCCCC2)c2ccc(C(=O)NS(=O)(=O)CC(F)(F)F)cc21 (centres unmarked) | – | 1 to 500 | – | –
28 | CC(C)S(=O)(=O)NC(=O)c1ccc2c(C3CCCCC3)c3n(c2c1)CC1(C(=O)N2C4CCC2CN(C)C4)CC1c1ccccc1-3 (centres unmarked) [drawing 126] | – | 1 to 500 | – | –
29 | CC(C)S(=O)(=O)NC(=O)c1ccc2c(C3CCCCC3)c3n(c2c1)CC1(C(=O)N2C4CCC2CN(C)C4)CC1c1ccccc1-3 (centres unmarked) [drawing 130] | – | – | – | 1 to 500
30 | CC(C)S(=O)(=O)NC(=O)c1ccc2c(C3CCCCC3)c3n(c2c1)CC1(C(=O)N2C4CCC2CN(C)C4)CC1c1ccccc1-3 (centres unmarked) [drawing 131] | – | – | – | 1 to 500
